Tests used:
Assay type in all cases: cell-based
[1] = test system: Candida tropicalis (ATCC-20240); test: Antifungal MIC, broth microdilution with MTT; conditions: most sensitive yeast
Protocol: (§1) Candida glabrata (ATCC-90525), Candida parapsilosis (ATCC-20224), Candida krusei (ATCC-6258), Candida tropicalis (ATCC-20240), Candida albicans (ATCC-2048) were supplied by the Chinese Academy of Medical Sciences.
(§2) Minimum inhibitory concentrations (MICs) of CGA-N46 and its derivatives against fungi were measured according to a modified version of broth microdilution method of the Clinical and Laboratory Standards Institute (CLSI). Fungi cell’s viability was assessed based on the reduction of 3-[4,5-dimethylthiazolyl]-2,5-diphenyltetrazolium bromide (MTT) into formazan dye by active mitochondria. Briefly, peptides were serially twofold diluted in 20 mM PBS (pH 6.0) to a final concentration between 2 mg mL^−1 and 3.9 µg mL^−1. Subsequently, 100 μL samples was dispensed into the wells of a 96-U-shaped-well plate, and each was mixed with 100 μL of the 2 × inoculum suspension (1–5 × 10^4 CFU mL^−1) of a log-phase fungal culture in Sabouraud (SD) broth. Strains without treatment with peptides were used as negative control. The cultures were incubated at 30 °C without agitation for 16 h. 10 μL of MTT solution (5 mg mL^−1 MTT in PBS) was added to each well, and the plate was further incubated for 4 h. After rinsed, 100 μL of dimethylsulfoxide (DMSO) was added to dissolve the MTT formazan crystals. The inhibition of growth was determined by measuring the absorbance at 570 nm with a microplate reader. The relative cellular activity was calculated according to the following formula: cell survival inhibition rate (\% of control)= [(OD570of the negative sample-OD570of the treated sample) / OD570of the negative control]×100\%.
(§3) Each test was performed in triplicate, and the data were expressed as the mean ± SE.

[2] = test system: Human red blood cells (RBCs)
Protocol: Hemolytic activity was tested according to the method. Briefly, peptides were serially twofold diluted using PBS in 96-well plates to give a volume of 100 μL of the sample solution in each well, and the final concentration of peptides ranged between 2.0 mg mL^−1 and 3.9 μg mL^−1. Human red blood cells (RBCs) from a healthy volunteer were diluted to a concentration of 2 % in PBS. 100 μL of the RBC suspension was added to each well, and the reactions were incubated at 37 °C for 60 min, followed by 150 μL supernatant being transferred to a new 96-well plate (U-shaped well). The release of hemoglobin was determined by measuring the absorbance of the supernatant at 570 nm. RBCs in PBS and 0.1 % (v/v) Triton-X100 were used as the negative and positive controls, respectively. The percentage of hemolysis was calculated using the following formula: Hemolysis rate%=[(OD570of the treated sample-OD570of the negative control)/OD570of the positive control-OD570of the negative control]×100%. Each test was performed in triplicate, and the data were expressed as the mean ± SE.

[3] = test system: Candida albicans (ATCC-2048); test: Antifungal MIC, broth microdilution with MTT; conditions: most sensitive yeast
Protocol: as §1, §2, §3

[4] = test system: Candida krusei (ATCC-6258); test: Antifungal MIC, broth microdilution with MTT; conditions: most sensitive yeast
Protocol: as §1, §2, §3

[5] = test system: Candida glabrata (ATCC-90525); test: Antifungal MIC, broth microdilution with MTT; conditions: most sensitive yeast
Protocol: as §1, §2, §3

**Q.** “H-ALQGAKERAHQQ-OH [CGA-N12, NH2–ALQGAKERAHQQ–COOH]” was tested. Which “MIC C. tropicalis” value [1] did it give?
**A.** The value was 75 µM.

**Q.** What about the “5 % Hemolysis” value [2] of the same substance?
**A.** Its value is 0.39 mmol/L.

**Q.** And the “hemolytic activity (in words)” value [2]?
**A.** Its value is “weak hemolytic activity at the concentration of MIC”.

**Q.** With “H-PMPVSQECFETLRGHERILSILRHQNLLKELQDLALQGAKERAHQQ-OH [CGA-N46]” as the substance, how does the “5 % Hemolysis” value [2] read?
**A.** The value was 0.74 mmol/L.

**Q.** What about the “hemolytic activity (in words)” value [2] of the same substance?
**A.** Its value is “weak hemolytic activity at the concentration of MIC”.

**Q.** With “H-GAKERAHQ-OH [CGA-N8, NH2–GAKERAHQ–COOH]” as the substance, how does the “MIC C. albicans” value [3] read?
**A.** Its value is 240 µM.

**Q.** And the “MIC C. krusei” value [4]?
**A.** Its value is 240 µM.

**Q.** What about the “5 % Hemolysis” value [2] of the same substance?
**A.** Its value is 0.27 mmol/L.

**Q.** What about the “hemolytic activity (in words)” value [2] of the same substance?
**A.** Its value is “MIC was near the concentration of its 5 % hemolysis”.

**Q.** How did the “MIC C. tropicalis” value [1] turn out when “H-ERILSILRHQNLLKE-OH [CGA-N15, NH2–ERILSILRHQNLLKE–COOH]” was run?
**A.** Its value is 73 µM.

**Q.** What about the “5 % Hemolysis” value [2] of the same substance?
**A.** The value was 0.031 mmol/L.

**Q.** What about the “hemolytic activity (in words)” value [2] of the same substance?
**A.** Its value is “strong hemolytic activity”.

**Q.** “H-LQDLALQGAKERAHQQ-OH [CGA-N16, NH2–LQDLALQGAKERAHQQ–COOH]” was tested. Which “MIC C. glabrata” value [5] did it give?
**A.** Its value is 280 µM.

**Q.** What about the “5 % Hemolysis” value [2] of the same substance?
**A.** The value was 0.056 mmol/L.

**Q.** And the “hemolytic activity (in words)” value [2]?
**A.** Its value is “strong hemolytic activity”.
